# In PubChem BioAssay (NCI):
#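 All cell lines were grown in 96-well plates and treated with compound for 48 hours. GI50: concentration for 50% inhibition of growth. TGI denotes the concentration required for complete inhibition of growth.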
# Tests used:
# Assay in all cases: NCI-60 cell line screen, 48 h
# [1] = tested on: 786-0 renal
# [2] = tested on: A498 renal
# [3] = tested on: A549 NSCLC
# [4] = tested on: ACHN renal
# [5] = tested on: BT-549 breast
# [6] = tested on: CAKI-1 renal
# [7] = tested on: CCRF-CEM leukemia
# [8] = tested on: COLO 205 colon
# [9] = tested on: DU-145 prostate
# [10] = tested on: EKVX NSCLC
# [11] = tested on: HCC-2998 colon
# [12] = tested on: HCT-116 colon
# [13] = tested on: HCT-15 colon
# [14] = tested on: HL-60(TB) leukemia
# [15] = tested on: HOP-62 NSCLC
# [16] = tested on: HOP-92 NSCLC
# [17] = tested on: HS 578T breast
# [18] = tested on: HT29 colon
# [19] = tested on: K-562 leukemia
# [20] = tested on: KM12 colon
# [21] = tested on: LOX IMVI melanoma
# [22] = tested on: M14 melanoma
# [23] = tested on: MALME-3M melanoma
# [24] = tested on: MCF7 breast
# [25] = tested on: MDA-MB-231 breast
# [26] = tested on: MDA-MB-435
# [27] = tested on: MOLT-4 leukemia
# [28] = tested on: NCI-H226 lung
# [29] = tested on: NCI-H23 lung
# [30] = tested on: NCI-H460 lung
# [31] = tested on: NCI-H522 lung
# [32] = tested on: NCI/ADR-RES ovarian
# [33] = tested on: OVCAR-3 ovarian
# [34] = tested on: OVCAR-4 ovarian
# [35] = tested on: OVCAR-5 ovarian
# [36] = tested on: OVCAR-8 ovarian
# [37] = tested on: PC-3 prostate
# [38] = tested on: RPMI-8226 leukemia
# [39] = tested on: RXF 393 renal
# [40] = tested on: SF-268 CNS
# [41] = tested on: SF-295 CNS
# [42] = tested on: SF-539 CNS
# [43] = tested on: SK-MEL-28 melanoma
# [44] = tested on: SK-MEL-5 melanoma
# [45] = tested on: SK-OV-3 ovarian
# [46] = tested on: SN12C renal
# [47] = tested on: SNB-19 CNS
# [48] = tested on: SNB-75 CNS
# [49] = tested on: SR leukemia
# [50] = tested on: SW-620 colon
# [51] = tested on: T-47D breast
# [52] = tested on: TK-10 renal
# [53] = tested on: U251 CNS
# [54] = tested on: UACC-257 melanoma
# [55] = tested on: UACC-62 melanoma
# [56] = tested on: UO-31 renal
# [57] = tested on: IGROV1 ovarian
# [58] = tested on: SK-MEL-2 melanoma
smiles,measurement,setting,value
COc1cc(Nc2nc(N[C@H]3CCCC[C@@H]3N)nc3cc[nH]c(=O)c23)cc(OC)c1,GI50,[1],3.31 µM
same,TGI,[1],18.8 µM
same,GI50,[2],1.01 µM
same,TGI,[2],10.1 µM
same,GI50,[3],2.57 µM
same,TGI,[3],16.1 µM
same,GI50,[4],1.38 µM
same,TGI,[4],19.9 µM
same,GI50,[5],1.57 µM
same,TGI,[5],5.03 µM
same,GI50,[6],1.84 µM
same,TGI,[6],10.9 µM
same,GI50,[7],1.39 µM
same,TGI,[7],11.8 µM
same,GI50,[8],1.04 µM
same,TGI,[8],2.49 µM
same,GI50,[9],0.74 µM
same,TGI,[9],15.3 µM
same,GI50,[10],1.08 µM
same,TGI,[10],12.2 µM
same,GI50,[11],1.7 µM
same,TGI,[11],11.5 µM
same,GI50,[12],1.03 µM
same,TGI,[12],2.27 µM
same,GI50,[13],3.97 µM
same,TGI,[13],18.3 µM
same,GI50,[14],0.47 µM
same,TGI,[14],3.8 µM
same,GI50,[15],3.21 µM
same,TGI,[15],20.8 µM
same,GI50,[16],1.06 µM
same,TGI,[16],9.13 µM
same,GI50,[17],1.14 µM
same,TGI,[17],15.2 µM
same,GI50,[18],0.391 µM
same,TGI,[18],3.69 µM
same,GI50,[19],2.47 µM
same,TGI,[19],10.3 µM
same,GI50,[20],0.422 µM
same,TGI,[20],3.11 µM
same,GI50,[21],0.468 µM
same,TGI,[21],1.77 µM
same,GI50,[22],0.379 µM
same,TGI,[22],2.16 µM
same,GI50,[23],2.2 µM
same,TGI,[23],22.5 µM
same,GI50,[24],1.37 µM
same,TGI,[24],8.44 µM
same,GI50,[25],1.99 µM
same,TGI,[25],9.35 µM
same,GI50,[26],0.997 µM
same,TGI,[26],2.6 µM
same,GI50,[27],1.19 µM
same,TGI,[27],11.4 µM
same,GI50,[28],1.88 µM
same,TGI,[28],12.4 µM
same,GI50,[29],1.48 µM
same,TGI,[29],15.8 µM
same,GI50,[30],1.28 µM
same,TGI,[30],4.21 µM
same,GI50,[31],1.45 µM
same,TGI,[31],4.55 µM
same,GI50,[32],41.4 µM
same,TGI,[32],> 100 µM
same,GI50,[33],8.71 µM
same,TGI,[33],21.8 µM
same,GI50,[34],5.93 µM
same,TGI,[34],20 µM
same,GI50,[35],1.11 µM
same,TGI,[35],14.6 µM
same,GI50,[36],3.17 µM
same,TGI,[36],19.6 µM
same,GI50,[37],2.53 µM
same,TGI,[37],20.8 µM
same,GI50,[38],2.18 µM
same,TGI,[38],12.1 µM
same,GI50,[39],0.403 µM
same,TGI,[39],2.76 µM
same,GI50,[40],2.17 µM
same,TGI,[40],17.7 µM
same,GI50,[41],1.5 µM
same,TGI,[41],4.46 µM
same,GI50,[42],0.454 µM
same,TGI,[42],2.64 µM
same,GI50,[43],1.86 µM
same,TGI,[43],6.44 µM
same,GI50,[44],1.22 µM
same,TGI,[44],6.06 µM
same,GI50,[45],0.388 µM
same,TGI,[45],17.5 µM
same,GI50,[46],2.43 µM
same,TGI,[46],16.9 µM
same,GI50,[47],3.01 µM
same,TGI,[47],16.7 µM
same,GI50,[48],3.27 µM
same,TGI,[48],17.3 µM
same,GI50,[49],0.8 µM
same,TGI,[49],3.91 µM
same,GI50,[50],1.16 µM
same,TGI,[50],2.97 µM
same,GI50,[51],12.8 µM
same,TGI,[51],30.2 µM
same,GI50,[52],1.84 µM
same,TGI,[52],19.3 µM
same,GI50,[53],1.46 µM
same,TGI,[53],5.31 µM
same,GI50,[54],1.55 µM
same,TGI,[54],3.33 µM
same,GI50,[55],0.844 µM
same,TGI,[55],19.1 µM
same,GI50,[56],6.72 µM
same,TGI,[56],21.5 µM
CC(C)(C)c1ccc(S(=O)(=O)N[C@H]2CC[C@H]3[C@@H]4CCc5cc(OS(=O)(=O)O)ccc5[C@H]4CC[C@]23C)cc1,GI50,[1],2.5 µM
same,TGI,[1],6.3 µM
same,GI50,[2],1.5 µM
same,TGI,[2],3.04 µM
same,GI50,[3],2.83 µM
same,TGI,[3],10.2 µM
same,GI50,[4],2.01 µM
same,TGI,[4],4.24 µM
same,GI50,[5],2.1 µM
same,TGI,[5],4.2 µM
same,GI50,[6],2.77 µM
same,TGI,[6],8.89 µM
same,GI50,[7],2.88 µM
same,TGI,[7],9.25 µM
same,GI50,[8],1.83 µM
same,TGI,[8],3.29 µM
same,GI50,[9],5.72 µM
same,TGI,[9],18 µM
same,GI50,[11],4.09 µM
same,TGI,[11],13.1 µM
same,GI50,[12],1.79 µM
same,TGI,[12],3.35 µM
same,GI50,[13],1.79 µM
same,TGI,[13],3.59 µM
same,GI50,[15],2.87 µM
same,TGI,[15],7.81 µM
same,GI50,[16],2.11 µM
same,TGI,[16],5.31 µM
same,GI50,[17],2.69 µM
same,TGI,[17],7.27 µM
same,GI50,[18],2.19 µM
same,TGI,[18],4.57 µM
same,GI50,[57],3.63 µM
same,TGI,[57],10.9 µM
same,GI50,[19],3.22 µM
same,TGI,[19],13.6 µM
same,GI50,[20],2.08 µM
same,TGI,[20],4.01 µM
same,GI50,[21],1.7 µM
same,TGI,[21],3.11 µM
same,GI50,[22],2.07 µM
same,TGI,[22],4.31 µM
same,GI50,[23],2.49 µM
same,TGI,[23],6.05 µM
same,GI50,[24],2.38 µM
same,TGI,[24],5.9 µM
same,GI50,[25],1.94 µM
same,TGI,[25],4.26 µM
same,GI50,[26],2.32 µM
same,TGI,[26],5.9 µM
same,GI50,[27],2.65 µM
same,TGI,[27],9.55 µM
same,GI50,[28],1.59 µM
same,TGI,[28],3.06 µM
same,GI50,[29],2.6 µM
same,TGI,[29],9.15 µM
same,GI50,[30],2.19 µM
same,TGI,[30],4.79 µM
same,GI50,[31],1.93 µM
same,TGI,[31],5.15 µM
same,GI50,[32],2.39 µM
same,TGI,[32],7.03 µM
same,GI50,[34],2.49 µM
same,TGI,[34],9.92 µM
same,GI50,[35],1.88 µM
same,TGI,[35],3.63 µM
same,GI50,[36],2.79 µM
same,TGI,[36],8.46 µM
same,GI50,[37],4.19 µM
same,TGI,[37],17.5 µM
same,GI50,[38],2.55 µM
same,TGI,[38],7.37 µM
same,GI50,[39],1.6 µM
same,TGI,[39],3.49 µM
same,GI50,[40],3.14 µM
same,TGI,[40],11.5 µM
same,GI50,[41],2.51 µM
same,TGI,[41],6.76 µM
same,GI50,[42],1.8 µM
same,TGI,[42],3.34 µM
same,GI50,[58],2.46 µM
same,TGI,[58],5.86 µM
same,GI50,[43],1.8 µM
same,TGI,[43],3.38 µM
same,GI50,[44],1.64 µM
same,TGI,[44],2.99 µM
same,GI50,[45],2.92 µM
same,TGI,[45],8.54 µM
same,GI50,[46],1.81 µM
same,TGI,[46],3.58 µM
same,GI50,[47],3.49 µM
same,TGI,[47],13.8 µM
same,GI50,[48],2.03 µM
same,TGI,[48],6.11 µM
same,GI50,[49],2.45 µM
same,TGI,[49],7.02 µM
same,GI50,[50],3.37 µM
same,TGI,[50],12.5 µM
same,GI50,[51],2.82 µM
same,TGI,[51],9.96 µM
same,GI50,[52],3.69 µM
same,TGI,[52],12.4 µM
same,GI50,[53],1.68 µM
same,TGI,[53],3.34 µM
same,GI50,[54],2.75 µM
same,TGI,[54],9.11 µM
same,GI50,[55],1.81 µM
same,TGI,[55],3.72 µM
same,GI50,[56],1.8 µM
same,TGI,[56],4.4 µM
